# Source: EP1282414B1, “FELBAMATE DERIVED COMPOUNDS FOR TREATING NEUROPATHIC PAIN” (University of Virginia Patent Foundation, priority 2000, dated 2001)
# Marks after values point to notes of the source that are not given here.
# What was measured:
# [1] = tested on: MES-induced seizure spread; test: Maximal Electroshock Seizure (MES) test, mice oral; type: in vivo; conditions: Mus musculus, oral administration
# Method: The MES test is a model for generalized tonic-clonic seizures and is used to identify compounds which prevent seizure spread. The behavioral and electrographic seizures generated in this model are consistent with the human disorder. In the MES test, an electrical stimulus of 0.2 s in duration (50 mA in mice and 150 mA in rat at 60Hz) was delivered via corneal electrodes primed with an electrolyte solution containing an anesthetic agent. Mice were tested at 30 minutes and 4 hours following doses of 30, 100 and 300 mg/kg of test compound. Rats were tested at time intervals between 0.25 and 4 hours following a standard oral dose of 30 mg/kg. Abolition of the hindlimb tonic extensor component indicates the test compound's ability to inhibit MES-induced seizure spread.
# (§1) Toxicity across time doe not occur until dosages of 300mg/kg. […] Quantitative results obtained for fluoro felbamate 12 in mice indicated a MES ED50 of approximately 20 mg/kg with a safety ratio of at least five (see Table 3). Results obtained for oral administration of fluoro felbamate 12 to rats indicated a MES ED50 of about 3 mg/kg with no toxicity at doses up to 500 mg/kg.
# [2] = tested on: focal seizures; test: Hippocampal kindling model (kindled rats), i.p.; type: in vivo, adult male Sprague-Dawley rats; design: key to Seizure Score ± S.E.M.: Racine seizure score (stage 5 = generalized seizure); conditions: for Number Protected / Number Tested / Afterdischarge Duration (sec) ± S.E.M / Seizure Score ± S.E.M.: i.p.
# From the text: The hippocampal kindling model can be used to evaluate a compound's ability to affect both the expression and acquisition of focal seizures. The hippocampal kindling paradigm as described by Lothman and Williamson (Lothman, 1994) allows the temporal effects of a drug to be evaluated in a single animal. This procedure requires the surgical placement ofbipolar electrodes in the ventral hippocampus of adult male Sprague-Dawley rats. Stage five behavioral seizures are produced by using a stimulus consisting of a 50 Hz, 10 s train of 1 ms biphasic 200 uA pulses delivered every 30 min for 6 hours (12 stimuli per day) on alternating days for a total of 60 stimulations (five stimulus days). Prior to evaluating a candidate's anticonvulsant activity, a drug free control period consisting of supramaximal stimulations are recorded to verify the stability of a stage five generalized seizure.
# A single dose of the candidate compound is then administered intraperitoneally (i.p.), 15 min following the last control stimulation. The anticonvulsant activity of the drug is assessed every 30 min for three to four hours starting 15 min after administering the test material. After each stimulation, individual Racine seizure scores and afterdischarge durations are recorded. Rats are used again in drug trials after four to five drug- and stimulus-free days.
# [3] = tested on: mice; test: Toxicity, mice oral; type: in vivo; conditions: oral administration
# Method: Toxicity induced by a compound is detected in mice using the standardized rotorod test described by Dunham & Miya (1957). Untreated control mice, when placed on a 6 r.p.m. rotation rod, can maintain their equilibrium for a prolonged period of time.
# as §1
# [4] = tested on: seizures; test: NINDS standard panel of assays (MES, scMET, toxicity screen), overall; type: in vivo; conditions: relative to felbamate
# From the text: The fluoro derivatives synthesized were submitted to the National Institute of Neurological Disorders and Stroke (NINDS) for evaluation in a standard panel of assays. Two convulsant tests (MES and scMET), and a toxicity screen (rotorod in mice, positional sense and gait in rats) were employed for evaluating the compounds activity as neuroprotecting agents. These testing procedures are described in detail in Molecular and Cellular Targets for Anti-epileptic Drugs, eds. G. Avanzini, G. Regesta, P. Tanganelli, M. Avoli, 1997, John Libbey & Company Ltd, pp 191-198. The felbamate derivatives were evaluated for anticonvulsant activity following intraperitoneal (i.p.) administration in mice and oral administration in rats.
# [5] = Dose Responses, 25 mg/kg (time not given)
# [6] = Dose Responses, 50 mg/kg (time not given)
# [7] = Dose Responses, 100 mg/kg (time not given)
compound,measurement,setting,value
"NC(=O)OCC(F)(COC(N)=O)c1ccccc1 [fluoro felbamate, 2-Fluoro-2-phenyl-1,3-propanediol dicarbamate]",ED50,[1],~27 mg/kg
same,change in afterdischarge duration (in words),[2]; 100mg/kg,corresponding decrease
same,change in seizure score (in words),[2]; 100mg/kg,significant drop
same,Number Protected / Number Tested,"[2]; Dose Responses, 25 mg/kg",0/7
same,Afterdischarge Duration (sec) ± S.E.M,[2]; [5],71.43 ± 5.50 s
same,Seizure Score ± S.E.M.,[2]; [5],4.57 ± 0.20
same,Number Protected / Number Tested,"[2]; Dose Responses, 50 mg/kg",3/7
same,Afterdischarge Duration (sec) ± S.E.M,[2]; [6],68.57 ± 20.14 s
same,Seizure Score ± S.E.M.,[2]; [6],2.86 ± 0.83
same,Number Protected / Number Tested,"[2]; Dose Responses, 100 mg/kg",7/8^a
same,Afterdischarge Duration (sec) ± S.E.M,[2]; [7],29.00 ± 10.86 s
same,Seizure Score ± S.E.M.,[2]; [7],1.50 ± 0.57
same,Afterdischarge Duration (sec) ± S.E.M,"[2]; 25 mg/kg, 15 min",77.29 ± 4.91 s
same,Seizure Score ± S.E.M.,"[2]; 25 mg/kg, 15 min",4.86 ± 0.14
same,Afterdischarge Duration (sec) ± S.E.M,"[2]; 25 mg/kg, 45 min",71.43 ± 5.50 s
same,Seizure Score ± S.E.M.,"[2]; 25 mg/kg, 45 min",4.57 ± 0.20
same,Afterdischarge Duration (sec) ± S.E.M,"[2]; 25 mg/kg, 75 min",64.43 ± 11.19 s
same,Seizure Score ± S.E.M.,"[2]; 25 mg/kg, 75 min",4.00 ± 0.69
same,Afterdischarge Duration (sec) ± S.E.M,"[2]; 25 mg/kg, 105 min",70.29 ± 4.85 s
same,Seizure Score ± S.E.M.,"[2]; 25 mg/kg, 105 min",4.57 ± 0.20
same,Afterdischarge Duration (sec) ± S.E.M,"[2]; 25 mg/kg, 135 min",53.86 ± 9.33 s
same,Seizure Score ± S.E.M.,"[2]; 25 mg/kg, 135 min",4.43 ± 0.57
same,Afterdischarge Duration (sec) ± S.E.M,"[2]; 25 mg/kg, 165 min",59.29 ± 3.28 s
same,Seizure Score ± S.E.M.,"[2]; 25 mg/kg, 165 min",4.71 ± 0.18
same,Afterdischarge Duration (sec) ± S.E.M,"[2]; 25 mg/kg, 195 min",54.00 ± 9.62 s
same,Seizure Score ± S.E.M.,"[2]; 25 mg/kg, 195 min",3.86 ± 0.67
same,Afterdischarge Duration (sec) ± S.E.M,"[2]; 25 mg/kg, 225 min",53.29 ± 9.03 s
same,Seizure Score ± S.E.M.,"[2]; 25 mg/kg, 225 min",4.00 ± 0.69
same,Afterdischarge Duration (sec) ± S.E.M,"[2]; 25 mg/kg, 255 min",64.00 ± 3.42 s
same,Seizure Score ± S.E.M.,"[2]; 25 mg/kg, 255 min",4.86 ± 0.14
same,Afterdischarge Duration (sec) ± S.E.M,"[2]; 50 mg/kg, 15 min",67.14 ± 12.39 s
same,Seizure Score ± S.E.M.,"[2]; 50 mg/kg, 15 min",3.86 ± 0.70
same,Afterdischarge Duration (sec) ± S.E.M,"[2]; 50 mg/kg, 45 min",68.57 ± 20.14 s
same,Seizure Score ± S.E.M.,"[2]; 50 mg/kg, 45 min",2.86 ± 0.83
same,Afterdischarge Duration (sec) ± S.E.M,"[2]; 50 mg/kg, 75 min",63.00 ± 17.45 s
same,Seizure Score ± S.E.M.,"[2]; 50 mg/kg, 75 min",3.14 ± 0.83
same,Afterdischarge Duration (sec) ± S.E.M,"[2]; 50 mg/kg, 105 min",60.86 ± 14.93 s
same,Seizure Score ± S.E.M.,"[2]; 50 mg/kg, 105 min",3.43 ± 0.90
same,Afterdischarge Duration (sec) ± S.E.M,"[2]; 50 mg/kg, 135 min",65.00 ± 13.10 s
same,Seizure Score ± S.E.M.,"[2]; 50 mg/kg, 135 min",3.71 ± 0.64
same,Afterdischarge Duration (sec) ± S.E.M,"[2]; 50 mg/kg, 165 min",43.14 ± 14.67 s
same,Seizure Score ± S.E.M.,"[2]; 50 mg/kg, 165 min",2.71 ± 0.97
same,Afterdischarge Duration (sec) ± S.E.M,"[2]; 50 mg/kg, 195 min",52.86 ± 14.59 s
same,Seizure Score ± S.E.M.,"[2]; 50 mg/kg, 195 min",3.14 ± 0.83
same,Afterdischarge Duration (sec) ± S.E.M,"[2]; 50 mg/kg, 225 min",39.86 ± 10.98 s
same,Seizure Score ± S.E.M.,"[2]; 50 mg/kg, 225 min",3.00 ± 0.87
same,Afterdischarge Duration (sec) ± S.E.M,"[2]; 50 mg/kg, 255 min",33.29 ± 11.76 s
same,Seizure Score ± S.E.M.,"[2]; 50 mg/kg, 255 min",2.57 ± 0.72
same,Afterdischarge Duration (sec) ± S.E.M,"[2]; 100 mg/kg, 15 min",40.75 ± 15.74 s
same,Seizure Score ± S.E.M.,"[2]; 100 mg/kg, 15 min",1.75 ± 0.73
same,Afterdischarge Duration (sec) ± S.E.M,"[2]; 100 mg/kg, 45 min",29.00 ± 10.86 s
same,Seizure Score ± S.E.M.,"[2]; 100 mg/kg, 45 min",1.50 ± 0.57
same,Afterdischarge Duration (sec) ± S.E.M,"[2]; 100 mg/kg, 75 min",38.63 ± 12.58 s
same,Seizure Score ± S.E.M.,"[2]; 100 mg/kg, 75 min",1.88 ± 0.67
same,Afterdischarge Duration (sec) ± S.E.M,"[2]; 100 mg/kg, 105 min",53.38 ± 12.59 s
same,Seizure Score ± S.E.M.,"[2]; 100 mg/kg, 105 min",2.38 ± 0.65
same,Afterdischarge Duration (sec) ± S.E.M,"[2]; 100 mg/kg, 135 min",33.63 ± 12.88 s
same,Seizure Score ± S.E.M.,"[2]; 100 mg/kg, 135 min",2.00 ± 0.76
same,Afterdischarge Duration (sec) ± S.E.M,"[2]; 100 mg/kg, 165 min",43.38 ± 12.79 s
same,Seizure Score ± S.E.M.,"[2]; 100 mg/kg, 165 min",2.75 ± 0.65
same,Afterdischarge Duration (sec) ± S.E.M,"[2]; 100 mg/kg, 195 min",45.25 ± 13.33 s
same,Seizure Score ± S.E.M.,"[2]; 100 mg/kg, 195 min",2.25 ± 0.70
same,Afterdischarge Duration (sec) ± S.E.M,"[2]; 100 mg/kg, 225 min",47.38 ± 14.80 s
same,Seizure Score ± S.E.M.,"[2]; 100 mg/kg, 225 min",2.50 ± 0.73
same,Afterdischarge Duration (sec) ± S.E.M,"[2]; 100 mg/kg, 255 min",45.38 ± 13.92 s
same,Seizure Score ± S.E.M.,"[2]; 100 mg/kg, 255 min",2.50 ± 0.65
same,no toxicity at doses up to,[3],up to 218 mg/kg
same,times more active than felbamate,[4],5-10 times
